Measurements from US20230406885A1, “CYCLIC PEPTIDES FOR TRAPPING INTERLEUKIN-1 BETA” (MERCK SHARP & DOHME LLC, priority 2022, published 2023).
*1 amine or outer side, *2 acyl side, *3 side chain or, on linkers, in order; H or OH if unused. Where a SMILES comes first, the peptide text is derived from it. [ ]: non-standard residue; d: D form. Trp(βS-Me,4-F) = C[C@@H](c1c[nH]c2cccc(F)c12)[C@H](N)C(=O)O; Bip(4'-COOH) = N[C@@H](Cc1ccc(-c2ccc(C(=O)O)cc2)cc1)C(=O)O; X1 = CC(=O)N1CCN(c2ccc(C[C@H](N[*:1])C(=O)[*:2])cn2)CC1; 1Nal(3S-Me) = C[C@@H](c1cccc2ccccc12)[C@H](N)C(=O)O; Phe(4-COOH) = N[C@@H](Cc1ccc(C(=O)O)cc1)C(=O)O; Pro(4R-NH2) = N[C@H]1CN[C@H](C(=O)O)C1; AEF = NCCOc1ccc(C[C@H](N)C(=O)O)cc1; hTyr = N[C@@H](CCc1ccc(O)cc1)C(=O)O; hCha = N[C@@H](CCC1CCCCC1)C(=O)O; dNMeA = CN[C@H](C)C(=O)O; Dab = NCC[C@H](N)C(=O)O; Dap = NC[C@H](N)C(=O)O

Target: T1, Recombinant human IL-1β (Homo sapiens, UniProt P01584)
T1 construct: purchased BioLegend 579404
Assay: IL-6 assay in MRC5 cells: inhibition of IL-1β induced IL-6 secretion (AlphaLISA)
Assay type: cell-based
Settings: inhibition of IL-1β induced IL-6 secretion in MRC5 cells; read-out: MRC5 IC50
In short: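 IL-1β at 2×EC80 in seeding medium (EMEM, 0.025% BSA) preincubated 1 h at ambient temperature with compound, then 3000 MRC5 cells/well added and incubated overnight at 37 °C, 5% CO2. IL-6 in conditioned medium quantified by AlphaLISA; IC50 from 4-parameter logistic fit.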

T1 sequence (P01584 117-269): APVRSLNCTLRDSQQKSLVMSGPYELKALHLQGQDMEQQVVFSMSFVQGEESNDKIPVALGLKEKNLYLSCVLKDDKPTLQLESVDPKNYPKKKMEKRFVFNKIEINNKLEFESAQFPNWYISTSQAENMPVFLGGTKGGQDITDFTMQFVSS

IC50 [nM] | Compound
0.145 | CC(=O)NCCOc1ccc(C[C@@H]2NC(=O)[C@H](CCc3ccc(O)cc3)NC(=O)[C@@H](CO)NC(=O)[C@H](CC(C)C)NC(=O)[C@H](Cc3c[nH]c4ccccc34)NC(=O)[C@H](Cc3ccc(-c4ccc(C(=O)O)cc4)cc3)NC(=O)CNC(=O)[C@@H](C)N(C)C(=O)[C@H](CC(=O)O)NC(=O)[C@H]([C@@H](C)c3c[nH]c4cccc(F)c34)NC(=O)[C@@H]3C[C@@H](N)CN3C(=O)CNC(=O)[C@H](Cc3ccc(C(=O)O)cc3)NC(=O)[C@H](Cc3c[nH]c4ccccc34)NC2=O)cc1 [Example 171] (cyclo([AEF](Ac)W[Phe(4-COOH)]G[Pro(4R-NH2)][Trp(βS-Me,4-F)]D[dNMeA]G[Bip(4'-COOH)]WL[dS][hTyr]))
0.246 | CC(=O)NCCOc1ccc(C[C@@H]2NC(=O)[C@H](CCc3ccc(O)cc3)NC(=O)[C@@H](C)NC(=O)[C@H](CO)NC(=O)[C@H](Cc3c[nH]c4ccccc34)NC(=O)[C@H](Cc3ccc(-c4ccc(C(=O)O)cc4)cc3)NC(=O)CNC(=O)[C@@H](C)N(C)C(=O)[C@H](CC(=O)O)NC(=O)[C@H]([C@@H](C)c3c[nH]c4cccc(F)c34)NC(=O)[C@@H]3C[C@@H](N)CN3C(=O)CNC(=O)[C@H](Cc3ccc(C(=O)O)cc3)NC(=O)[C@H](Cc3c[nH]c4ccccc34)NC2=O)cc1 [Example 172] (cyclo([AEF](Ac)W[Phe(4-COOH)]G[Pro(4R-NH2)][Trp(βS-Me,4-F)]D[dNMeA]G[Bip(4'-COOH)]WS[dA][hTyr]))
0.959 | CC(=O)NCCOc1ccc(C[C@@H]2NC(=O)[C@H](Cc3ccc(OCCNC(C)=O)cc3)NC(=O)[C@@H](C)NC(=O)[C@H](CO)NC(=O)[C@H](Cc3c[nH]c4ccccc34)NC(=O)[C@H](Cc3ccc(-c4ccc(C(=O)O)cc4)cc3)NC(=O)CNC(=O)[C@@H](C)N(C)C(=O)[C@H](CC(=O)O)NC(=O)[C@H]([C@@H](C)c3c[nH]c4cccc(F)c34)NC(=O)[C@@H]3C[C@@H](N)CN3C(=O)CNC(=O)[C@H](Cc3ccc(C(=O)O)cc3)NC(=O)[C@H](Cc3c[nH]c4ccccc34)NC2=O)cc1 [Example 173] (cyclo([AEF](Ac)W[Phe(4-COOH)]G[Pro(4R-NH2)][Trp(βS-Me,4-F)]D[dNMeA]G[Bip(4'-COOH)]WS[dA][AEF](Ac)))
0.015 | CC(=O)N1CCN(c2ccc(C[C@@H]3NC(=O)[C@H](CCC4CCCCC4)NC(=O)[C@@H](C)NC(=O)[C@H](CC(C)C)NC(=O)[C@H](CCN)NC(=O)[C@H](Cc4ccc(-c5ccc(C(=O)O)cc5)cc4)NC(=O)CNC(=O)[C@@H](C)N(C)C(=O)[C@H](CC(=O)O)NC(=O)[C@H]([C@@H](C)c4cccc5ccccc45)NC(=O)[C@@H]4C[C@@H](N)CN4C(=O)CNC(=O)[C@H](Cc4ccc(C(=O)O)cc4)NC(=O)[C@H](Cc4c[nH]c5ccccc45)NC3=O)cn2)CC1 [Example 174] (cyclo([X1]W[Phe(4-COOH)]G[Pro(4R-NH2)][1Nal(3S-Me)]D[dNMeA]G[Bip(4'-COOH)][Dab]L[dA][hCha]))
0.016 | CC(=O)N1CCN(c2ccc(C[C@@H]3NC(=O)[C@H](CCC4CCCCC4)NC(=O)[C@@H](C)NC(=O)[C@H](CC(C)C)NC(=O)[C@H](CN)NC(=O)[C@H](Cc4ccc(-c5ccc(C(=O)O)cc5)cc4)NC(=O)CNC(=O)[C@@H](C)N(C)C(=O)[C@H](CC(=O)O)NC(=O)[C@H]([C@@H](C)c4cccc5ccccc45)NC(=O)[C@@H]4C[C@@H](N)CN4C(=O)CNC(=O)[C@H](Cc4ccc(C(=O)O)cc4)NC(=O)[C@H](Cc4c[nH]c5ccccc45)NC3=O)cn2)CC1 [Example 175] (cyclo([X1]W[Phe(4-COOH)]G[Pro(4R-NH2)][1Nal(3S-Me)]D[dNMeA]G[Bip(4'-COOH)][Dap]L[dA][hCha]))
